Assay results taken from patent publication US20250127695A1, “Use of Branched Medium-Chain Glycerol Ethers as Active Antidandruff Ingredients” (Henkel AG & Co. KGaA, priority 2022, published 2025).

Tests used:
[1] = test system: interleukin 8
[2] = test system: barrier markers (transglutaminase1, filaggrin, decorin, involucrin, and loricrin); assay: gene expression of barrier markers in in vitro tests on artificial skin models; assay type: cell-based; details: various concentrations, FIG. 2
Text: The gene expression of all investigated barrier markers (transglutaminase1, filaggrin, decorin, involucrin, and loricrin) was reduced by the treatment.

[3] = test system: Malassezia furfur; assay: quantitative suspension test of Malassezia furfur; assay type: cell-based; details: incubation ≤60 min at 37° C. in a buffer solution, FIG. 1
Method: The efficacy against dandruff was investigated by is of a suspension test. Various formulations were incubated for a certain time (≤60 min) together with the yeast Malassezia furfur, which was present in cell counts of 10^5-10^6 CFU/mL, at 37° C. in a buffer solution.
After incubation, the cell count of the yeast was determined by is of a culture method (growth on Sabouraud Agar). The difference between this value and the respective initial value is a measure of the microbicidal efficacy of the respective anti-dandruff compound.
One of the causes of dandruff formation is the excessive growth of various microorganisms on the scalp. Yeasts of the genus Malassezia play a particularly important role here. The growth-inhibiting effect of various anti-dandruff compounds in this experiment therefore indicates anti-dandruff efficacy (FIG. 1).

Row | Compound | release of interleukin 8 (inflammatory marker) [1] | gene expression of barrier markers (transglutaminase1, filaggrin, decorin, involucrin, loricrin) [2] | microbicidal efficacy against Malassezia (cell count of the yeast after incubation vs initial value) [3]
1 | Cc1cc(CC(C)CC(C)(C)C)n(O)c(=O)c1.NCCO (stereo not shown) [Octopirox, Piroctone Olamine] | does not negatively influence the release of inflammatory markers | reduced | –
2 | CCCCCCC(C)OCC(O)CO (stereo not shown) [methylheptyl glycerin] | – | did not lead to a significant decrease in gene expression | killing effect on the Malassezia fungus
